# Reference: patent publication US12448374B2, “Inhibitors of SARM1” (Disarm Therapeutics, Inc., priority 2018, dated 2025)
# pIC50: −log10 of the molar value.
# Biological target: T1, SARM1 SAM-TIR (Homo sapiens, UniProt Q6SZW1)
# T1 construct: This assay makes use of a fragment of the SARM1 molecule encompassing the SAM and TIR domains; made in house; host or cells: NRK1-HEK293T cells (transient transfection; clarified sonicated lysate used without purification)
# T1 sequence (Q6SZW1 409-724 limits assumed): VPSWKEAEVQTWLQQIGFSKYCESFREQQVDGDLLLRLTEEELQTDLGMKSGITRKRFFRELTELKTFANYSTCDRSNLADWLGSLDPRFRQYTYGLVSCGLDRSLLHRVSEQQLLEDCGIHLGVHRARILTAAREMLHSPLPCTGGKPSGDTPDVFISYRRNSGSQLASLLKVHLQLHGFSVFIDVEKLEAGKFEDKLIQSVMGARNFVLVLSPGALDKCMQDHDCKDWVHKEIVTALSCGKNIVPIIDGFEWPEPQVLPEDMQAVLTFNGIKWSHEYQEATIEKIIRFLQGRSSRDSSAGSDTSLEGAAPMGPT
# Assay: SAM-TIR SARM1 IC50 assay (NADase activity, NAD+ cleavage)
# Format: biochemical
# Details: SAM-TIR lysate 5 μg/mL, 2 h pre-incubation, 5 μM NAD+, RapidFire MS readout
# Text: This Example describes an assay of SAM-TIR NADase activity and use of this assay to measure the efficacy of compounds of Formula I to block SARM1 mediated NAD+ cleavage. This assay is optimized in such a way as to characterize the efficacy of the compounds in Formula I to inhibit SARM1 activity and to calculate an IC50 value for each compound. This assay makes use of a fragment of the SARM1 molecule encompassing the SAM and TIR domains.
# NRK1-HEK293T cells refers to a cell line that has been stably e transfected with an FCIV expression vector that expresses human Nicotinamide Riboside Kinase 1 (NRK1), an enzyme that converts the NAD+ biosynthetic precursor nicotinamide riboside (NR) to NMN, the immediate precursor of NAD+. When provided with NR this cell line augments intracellular NAD+ levels and maintains cell viability, when expressing SARM1 SAM-TIR. FIG. 2 illustrates that a NRK1-HEK293T stable line with NR supplementation maintains higher NAD+ levels upon SARM1-TIR expression. Data was generated from three independent NAD+ measurements from three independent transfection experiments, and normalized to data from a non-transfected experiment run concurrently. Data are presented as mean±SEM; Error bars: SEM; ***P<0.001 two tailed student's t-test.
# NRK1-HEK293T cells were seeded onto 150 cm^2 plates at 20×10^6 cells per plate. The next day, the cells were transfected with 15 μg FCIV-SST (SAM-TIR expression plasmid, SEQ ID NO: 1) using X-[…]™ 9 DNA Transfection Reagent (Roche product #06365787001).
# The cultures were supplemented with 1 mM NR at time of transfection to minimize toxicity from SAM-TIR overexpression. Forty-eight hours after transfection, cells were harvested, pelleted by centrifugation at 1,000 rpm (Sorvall ST 16R centrifuge, Thermo Fisher), and washed once with cold PBS (0.01 M phosphate buffered saline NaCl 0.138 M; KCl 0.0027 M; pH 7.4). The cells were resuspended in PBS with protease inhibitors (cOmplete™ protease inhibitor cocktail, Roche product #11873580001) and cell lysates were prepared by sonication (Branson Sonifer 450, output=3, 20 episodes of stroke). The lysates were centrifuged (12,000×g for 10 min at 4° C.) to remove cell debris and the supernatants (containing SARM1 SAM-TIR protein) were stored at −80° C. for later use in the in vitro SARM1 SAM-TIR NADase assay (see below). Protein concentration was determined by the Bicinchoninic (BCA) method and used to normalize lysate concentrations.
# The enzymatic assay was performed in a 384-well polypropylene plate in Dulbecco's PBS buffer in a final assay volume of 20 μL. SAM-TIR lysate with a final concentration of 5 μg/mL was pre-incubated with the respective compound at 1% DMSO final assay concentration over 2 h at room temperature. The reaction was initiated by addition of 5 μM final assay concentration of NAD+ as substrate. After a 2 hr room temperature incubation, the reaction was terminated with 40 μL of stop solution of 7.5% trichloroactetic acid in acetonitrile. The NAD+ and ADPR concentrations were analyzed by a RapidFire High Throughput Mass Spectrometry System (Agilent Technologies, Santa Clara, CA) using an API4000 triple quadrupole mass spectrometer (AB Sciex Framingham, MA).
row,pIC50,Structure (SMILES)
1,< 4.30,Brc1cccc2nncn12 [Example 3]
2,> 5.00,Ic1c[nH]c2cnccc12 [Example 4]
3,4.52 to 5.00,Brc1cccc2[nH]ncc12 [Example 5]
4,> 5.00,Clc1nccc2c(Br)c[nH]c12 [Example 6]
5,> 5.00,Brc1c[nH]c2cnccc12 [Example 7]
6,> 5.00,Clc1c[nH]c2cnccc12 [Example 9]
7,< 4.30,COCCCn1cc(Br)c2ccncc21 [Example 10]
8,< 4.30,NC(=O)Cn1cc(Br)c2ccncc21 [Example 11]
9,4.30 to 4.52,COCCn1cc(Br)c2ccncc21 [Example 12]
10,4.30 to 4.52,CC(C)n1cc(Br)c2ccncc21 [Example 13]
11,> 5.00,CCn1cc(I)c2ccncc21 [Example 14]
12,> 5.00,Cn1cc(I)c2ccncc21 [Example 15]
13,> 5.00,Cn1cc(Br)c2ccncc21 [Example 16]
14,< 4.30,Oc1nnc2cnccn12 [Example 27]
15,> 5.00,Cn1cnc2cnccc21 [Example 28]
16,4.30 to 4.52,Cc1ccc2nc[nH]c2c1Br [Example 29]
17,> 5.00,Brc1csc2cnccc12 [Example 30]
18,4.52 to 5.00,Brc1n[nH]c2cnccc12 [Example 31]
19,> 5.00,Brc1cncc2[nH]ncc12 [Example 32]
20,> 5.00,c1cc2ccsc2cn1 [Example 33]
21,< 4.30,N#Cc1cc2ccncc2[nH]1 [Example 37]
22,< 4.30,CCOC(=O)c1[nH]c2cnccc2c1Br [Example 38]
23,4.30 to 4.52,O=S1(=O)C=C(Br)c2ccncc21 [Example 40]
24,> 5.00,Ic1csc2cnncc12 [Example 41]
25,< 4.30,Ic1c[nH]c2nnccc12 [Example 42]
26,> 5.00,Brc1csc2cnncc12 [Example 43]
27,< 4.30,Brc1c[nH]c2nnccc12 [Example 44]

# Tested on: mouse dorsal root ganglion (DRG) neurons
# Assay: Axon degeneration assay in mouse DRG drop culture
# Format: cell-based
# Details: DRG neuron, protection of axon fragmentation, axonal transection or chemotoxic stimuli
# Method: This Example illustrates an in vitro axon degeneration assay used to characterize compounds of Formula I. This assay is used to test the efficacy of the compounds of Formula I to prevent axonal degeneration in a mouse dorsal root ganglion (DRG) drop culture.
# Mouse DRG Drop culture: Mouse dorsal root ganglion neurons (DRGs) were dissected out of E12.5 CD1 mice (50 ganglion per embryo) and incubated with 0.5% Trypsin solution containing 0.02% EDTA (Gibco) at 37° C. for 15 min. The cells were then triturated by gentle pipetting and washed 3 times with DRG growth medium (Neurobasal medium (Gibco) containing 2% B27 (Invitrogen), 100 ng/ml 2.5S NGF (Harland Bioproducts), 1 mM 5-fluoro-2′ deoxyuridine (Sigma), penicillin, and streptomycin). Cells were suspended in the DRG growth medium. DRG drop cultures were created by spotting 5000 cells/well into the center of each well of a 96-well tissue culture plate coated with poly-D-Lysine (0.1 mg/ml; Sigma) and laminin ([…]; Invitrogen). Cells were allowed to adhere to the plates in a humidified tissue culture incubator (5% CO2) for 15 min and then DRG growth medium was gently added ([…]).
# Axon degeneration assay: Axonal degeneration was stimulated either by manual axonal transection using a scalpel blade, or chemotoxic stimuli. After an appropriate experimental time period, the DRG cultures were fixed in 1% PFA plus sucrose and kept in the fridge prior to imaging. Bright-field images of DRG axons and cell bodies were collected using the 20× water immersion lens of a Phenix automated confocal microscope (PerkinElmer) and quantitation of axonal performed using in-house developed scripts (Acapella, PerkinElmer).
row,Structure (SMILES),pIC50
1,Ic1c[nH]c2cnccc12 [Example 4],> 5.00
2,Brc1c[nH]c2cnccc12 [Example 7],> 5.00
3,Brc1csc2cnccc12 [Example 30],4.52 to 5.00
